Assay results published in PubChem BioAssay AID1963438 (Molecular Pharmacology Branch, DTP, NCI, 2024).

System: NCI-H510 multicellular tumor spheroid growth, % test/control
Experiment: Anticancer human tumor NCI-H510 cell line growth inhibition [Asc];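 note: spheroids exposed to agents for 7 days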;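 for viability, T/C: 100% = DMSO vehicle control wells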
Conditions: for viability, T/C: stronger effect = lower value
Procedure, shortened: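 Concentration series start at each agent's clinical Cmax, or at 10 microM when none is established, and drop in half-log steps; agents are applied alone or together to complex spheroids built with HUVEC and hMSC.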

[1] = curve of first compound, second compound 0.03 µM
[2] = curve of first compound, second compound 0.0949 µM
[3] = curve of first compound, second compound 0.3 µM
[4] = curve of first compound, second compound 0.949 µM
[5] = curve of first compound, second compound 3 µM
[6] = second compound 0.03 µM, first compound 0.00316 µM
[7] = second compound 0.03 µM, first compound 0.01 µM
[8] = second compound 0.03 µM, first compound 0.0316 µM
[9] = second compound 0.03 µM, first compound 0.1 µM
[10] = second compound 0.0949 µM, first compound 0.00316 µM
[11] = second compound 0.0949 µM, first compound 0.01 µM
[12] = second compound 0.0949 µM, first compound 0.0316 µM
[13] = second compound 0.0949 µM, first compound 0.1 µM
[14] = second compound 0.3 µM, first compound 0.00316 µM
[15] = second compound 0.3 µM, first compound 0.01 µM
[16] = second compound 0.3 µM, first compound 0.0316 µM
[17] = second compound 0.3 µM, first compound 0.1 µM
[18] = second compound 0.949 µM, first compound 0.00316 µM
[19] = second compound 0.949 µM, first compound 0.01 µM
[20] = second compound 0.949 µM, first compound 0.0316 µM
[21] = second compound 0.949 µM, first compound 0.1 µM
[22] = second compound 3 µM, first compound 0.00316 µM
[23] = second compound 3 µM, first compound 0.01 µM
[24] = second compound 3 µM, first compound 0.0316 µM
[25] = second compound 3 µM, first compound 0.1 µM

`NC1CCC(NC2CC2c2ccccc2)CC1` (configuration not stated) + CCN1C(C(=O)NC23CCC(C(=O)O)(CC2)CC3)C(c2cccc(Cl)c2F)C2(C(=O)Nc3cc(Cl)ccc32)C12CCCCC2 showed an IC50 [1] greater than 0.1 µM, an IC50 [2] greater than 0.1 µM and an IC50 [3] greater than 0.1 µM. The IC50 [4] was greater than 0.1 µM, the IC50 [5] was 0.0848 µM and the viability, T/C (second compound 0.03 µM, first compound 0.000316 µM) was 85.9%. The viability, T/C (second compound 0.03 µM, first compound 0.001 µM) was 84.4%, the viability, T/C [6] was 82.5% and the viability, T/C [7] was 81.9%. It also gave a viability, T/C [8] of 92.4%, a viability, T/C [9] of 91.9% and a viability, T/C (second compound 0.0949 µM, first compound 0.000316 µM) of 101%. For the same compound, the viability, T/C (second compound 0.0949 µM, first compound 0.001 µM) was 71.6%, the viability, T/C [10] was 77.5% and the viability, T/C [11] was 78.7%. The viability, T/C [12] was 60.6%, the viability, T/C [13] was 71.3% and the viability, T/C (second compound 0.3 µM, first compound 0.000316 µM) was 92.4%. It also gave a viability, T/C (second compound 0.3 µM, first compound 0.001 µM) of 85.8%, a viability, T/C [14] of 98.3% and a viability, T/C [15] of 95.8%. The viability, T/C [16] was 73.3%, the viability, T/C [17] was 55.8% and the viability, T/C (second compound 0.949 µM, first compound 0.000316 µM) was 83.8%. The viability, T/C (second compound 0.949 µM, first compound 0.001 µM) was 92.9%, the viability, T/C [18] was 90.6% and the viability, T/C [19] was 80.8%. The viability, T/C [20] was 72.3%, the viability, T/C [21] was 60.5% and the viability, T/C (second compound 3 µM, first compound 0.000316 µM) was 106%. The viability, T/C (second compound 3 µM, first compound 0.001 µM) was 82.3%, the viability, T/C [22] was 79.8% and the viability, T/C [23] was 75.2%. For the same compound, the viability, T/C [24] was 60% and the viability, T/C [25] was 46.6%.
For `Cc1c(S(C)(=O)=O)c(-c2cc(F)cc(N3CCN(c4ccc(NS(=O)(=O)c5ccc(NC(CCN6CCC(C(=O)OCCCP(=O)(O)O)CC6)CSc6ccccc6)c(S(=O)(=O)C(F)(F)F)c5)cc4)CC3)c2)c(-c2ccc(Cl)cc2)n1C(C)C` (configuration not stated), the viability, T/C (compound 1 µM) was 95.2% [middle of 14 runs] and the IC50 (compound alone, run of 10/11/2022) was greater than 10 µM.
Compound `CCN1CCN(Cc2ccc(Nc3ncc(F)c(-c4cc(F)c5nc(C)n(C(C)C)c5c4)n3)nc2)CC1` + CCN1C(C(=O)NC23CCC(C(=O)O)(CC2)CC3)C(c2cccc(Cl)c2F)C2(C(=O)Nc3cc(Cl)ccc32)C12CCCCC2 has an IC50 [1] greater than 1 µM, an IC50 [2] greater than 1 µM and an IC50 [3] greater than 1 µM. For the same compound, the IC50 [4] was greater than 1 µM, the IC50 [5] was greater than 1 µM and the viability, T/C [6] was 100%. The viability, T/C [7] was 88%, the viability, T/C [8] was 99.1% and the viability, T/C [9] was 129%. The viability, T/C (second compound 0.03 µM, first compound 0.316 µM) was 123%, the viability, T/C (second compound 0.03 µM, first compound 1 µM) was 75.7% and the viability, T/C [10] was 97.4%. It also gave a viability, T/C [11] of 116%, a viability, T/C [12] of 121% and a viability, T/C [13] of 110%. The viability, T/C (second compound 0.0949 µM, first compound 0.316 µM) was 105%, the viability, T/C (second compound 0.0949 µM, first compound 1 µM) was 87.5% and the viability, T/C [14] was 119%. For the same compound, the viability, T/C [15] was 114%, the viability, T/C [16] was 74.9% and the viability, T/C [17] was 86.1%. For the same compound, the viability, T/C (second compound 0.3 µM, first compound 0.316 µM) was 106%, the viability, T/C (second compound 0.3 µM, first compound 1 µM) was 88.7% and the viability, T/C [18] was 105%. It also gave a viability, T/C [19] of 107%, a viability, T/C [20] of 123% and a viability, T/C [21] of 74.5%. The viability, T/C (second compound 0.949 µM, first compound 0.316 µM) was 107%, the viability, T/C (second compound 0.949 µM, first compound 1 µM) was 106% and the viability, T/C [22] was 98.2%. The viability, T/C [23] was 127%, the viability, T/C [24] was 128% and the viability, T/C [25] was 76.1%. The viability, T/C (second compound 3 µM, first compound 0.316 µM) was 113% and the viability, T/C (second compound 3 µM, first compound 1 µM) was 83.1%.
